Assays:
SK-MEL-28 cells = assay: Inhibitory activity against cancer cells (MTT cell viability), SK-MEL-28; assay type: cell-based; conditions: Homo sapiens, SK-MEL-28, 48 hr incubation
Method: (§1) The inhibitory activities of biguanide derivatives against cancer cells were evaluated in the cell line SK-MEL-28 derived from human Melanoma cell, Miapaka-2 cell line derived from human pancreatic cancer cell and HCT116 cell line derived from human colorectal cancer cell by measuring the concentration that inhibits 50% of the growth of the cell lines (the half maximal inhibitory concentration, IC50).
(§2) Firstly, SK-MEL-28 cells were grown to be density of 5,000 cells/well in RPMI-1640 media supplemented with 10% (v/v) bovine calf serum, on 96-well plates for 16 hr. To measure the IC50 of each compound, the cells were incubated for 48 hr with the 100 mM PBS stock compounds at an amount of 10 mM, 1 mM, 200 uM, 40 uM, 8 uM, 1.6 uM, 0.32 uM or 0.064 uM; 50 mM PBS and EtOH stock compounds at an amount of 1 mM, 200 uM, 40 uM, 8 uM, 1.6 uM, 0.32 uM and 0.064 uM; and 50 mM DMSO stock compounds at an amount of 100 uM, 25 uM, 6.25 uM, 1.56 uM, 0.39 uM, 0.10 uM and 0.02 uM, respectively. To test the viable cells after incubation with each compound, the cell cultures were incubated additionally for 2 hr in the presence of MTT. The produced formazan crystals were dissolved with dimethyl sulfoxide and then measured by detecting the absorbance at 560 nm.
(§3) After the 48 hr incubation, the viable cells were counted on the well plates treated with the compounds of the Examples relative to the count of the viable cells on the non-treated plates, and then was represented as the cell viability (%). By using the cell viability (%) result, the cell viability curve was plotted, and IC50 was calculated from the curve to evaluate the inhibitory activity against cancer cells.

HCT116 cell = assay: Inhibitory activity against cancer cells (MTT cell viability), HCT116; assay type: cell-based, human; conditions: Homo sapiens, HCT 116, 48 hr incubation
Method: as §1, §2, §3
(§4) The inhibitory activities of biguanide derivatives against cancer cells of Miapaca-2 cell and HCT116 cell were evaluated according to the substantially same method as described in SK-MEL-28 cell, except that DMEM media supplemented with 10% (v/v) bovine calf serum was used instead of RPMI-1640 media supplemented with 10% (v/v) bovine calf serum for SK-MEL-28 cell.

Miapaca-2 cell = assay: Inhibitory activity against cancer cells (MTT cell viability), Miapaca-2; assay type: cell-based; conditions: Homo sapiens, MIA PaCa-2, Miapaca-2, 48 hr incubation
Method: as §1, §2, §3, §4

SMILES	IC50 (SK-MEL-28 cells)	IC50 (HCT116 cell)	IC50 (Miapaca-2 cell)
N=C(NC(=N)N1CCCC1)Nc1ccc(/C=C/C(=O)N2CCCCC2)cc1 [Example 24, (E)-N—(N-(4-(3-oxo-3-(piperidin-1-yl)prop-1-enyl)phenyl)carbamimidoyl)pyrrolidine-1-carboximidamide]	> 100 µM	> 100 µM	> 100 µM
N=C(NC(=N)N1CCCC1)Nc1ccc(C(N)=O)cc1 [Example 23, N1-pyrrolidine-N5-4-benzamide biguanide]	> 1000 µM	> 100 µM	2340 µM
N=C(NCc1ccc2c(c1)OCO2)NC(=N)N1CCCC1 [Example 1, N1-pyrrolidine-N5-(benzo[1,3]dioxol-5-ylmethyl) biguanide]	107 µM	> 100 µM	36.2 µM
N=C(NC(=N)N1CCCC1)Nc1ccc(SCC(=O)N2CCCCC2)cc1 [Example 28, N—(N-(4-(2-oxo-2-(piperidin-1-yl)ethylthio)phenyl)carbamimidoyl)pyrrolidine-1-carboximidamide]	176 µM	> 100 µM	209 µM
CS(=O)(=O)C1CCN(C(=N)NC(=N)Nc2ccc(OC(F)(F)F)cc2)CC1 [Example 53, N1-4-(methylsulfonyl)piperidine-N5-(4-trifluoromethoxy)phenyl biguanide]	> 100 µM	182 µM	> 100 µM
N=C(NC(=N)N1CCCC1)Nc1ccc(CCC(=O)N2CCCCC2)cc1 [Example 26, N—(N-(4-(3-oxo-3-(piperidin-1-yl)propyl)phenyl)carbamimidoyl)pyrrolidine-1-carboximidamide]	–	> 100 µM	–
N=C(NC(=N)N1CCc2ccccc21)Nc1cccc(Oc2ccccc2)c1 [Example 91, N—(N-(3-phenoxyphenyl)carbamimidoyl)indoline-1-carboximidamide]	–	11 µM	–
N=C(NC(=N)N1CCc2ccccc21)Nc1ccc(OC(F)(F)F)cc1 [Example 88, N—(N-(4-(trifluoromethoxy)phenyl)carbamimidoyl)indoline-1-carboximidamide]	–	7.42 µM	–
N=C(NC(=N)N1CC[C@H](O)C1)Nc1ccc(SCC(=O)N2CCCCC2)cc1 [Example 29, (S)-3-hydroxy-N—(N-(4-(2-oxo-2-(piperidin-1-yl)ethylthio)phenyl)carbamimidoyl)pyrrolidine-1-carboximidamide]	–	> 100 µM	–
N=C(N)NC(=N)Nc1ccc(Cl)cc1Cl [Example 54]	–	> 100 µM	–
N=C(NC(=N)Nc1ccc(F)c(C(F)(F)F)c1)Nc1cccnc1 [Example 65, N1-3-pyridine-N5-(4-fluoro-3-trifluoromethyl)phenyl biguanide]	–	> 100 µM	–
N=C(NC(=N)N1CCc2ccccc21)Nc1ccc(Oc2ccccc2)cc1 [Example 90, N—(N-(4-phenoxyphenyl)carbamimidoyl)indoline-1-carboximidamide]	–	27.7 µM	–
N=C(NC(=N)Nc1cnccn1)Nc1ccc(C(F)(F)F)cc1 [Example 67, N1-2-pyrazine-N5-(4-trifluoromethyl)phenyl biguanide]	–	50.7 µM	–
N=C(Nc1nc2ccccc2[nH]1)N1CCCC1 [Example 96, N-(1H-benzo[d]imidazol-2-yl)pyrrolidine-1-carboximidamide]	–	> 100 µM	–
N=C(NC(=N)N1CC=CCC1)Nc1ccc(CCNC(=O)CCCCC2CC3NC(=O)NC3S2)cc1 (centres unmarked) [Example 80, N-(4-(3-((5,6-dihydropyridin-1(2H)-yl)(imino)methyl)guanidino)phenethyl)-5-(2-oxohexahydro-1H-thieno[2,3-d]imidazol-5-yl)pentanamide]	–	> 100 µM	–
N=C(NC(=N)N1CCCC1)Nc1ccc(-c2ccccc2)cc1 [Example 9, N1-pyrrolidine-N5-(N-biphenyl-4-yl) biguanide]	–	7.43 µM	–
CC(C)(NC(=N)NC(=N)N1CCCC1)c1ccccc1 [Example 13, N1-pyrrolidine-N5-(2-phenylpropane-2-yl) biguanide]	–	> 100 µM	–
CN1CCN(C(=N)NC(=N)Nc2ccc(OC(F)(F)F)c(F)c2)CC1 [Example 37, N1-4-methyl piperazine-N5-(3-fluoro-4-trifluoromethoxy)phenyl biguanide]	–	32.3 µM	–
CC1CC(C)CN(C(=N)NC(=N)Nc2ccc(CCNC(=O)CCCCC3CC4NC(=O)NC4S3)cc2)C1 (centres unmarked) [Example 79, N-(4-(3-((3,5-dimethylpiperidin-1-yl)(imino)methyl)guanidino)phenethyl)-5-(2-oxohexahydro-1H-thieno[2,3-d]imidazol-5-yl)pentanamide]	–	> 100 µM	–
CN1CCN(C(=N)NC(=N)Nc2ccc(F)c(C(F)(F)F)c2)CC1 [Example 35, N1-4-methyl piperazine-N5-(4-fluoro-3-trifluoromethyl)phenyl biguanide]	–	32.4 µM	–

SMILES	IC50 (SK-MEL-28 cells)	IC50 (HCT116 cell)	IC50 (Miapaca-2 cell)
CCN1CCN(C(=N)NC(=N)Nc2ccc(OC(F)(F)F)cc2)CC1 [Example 45, N1-4-ethyl piperazine-N5-(4-trifluoromethoxy)phenyl biguanide]	–	33.8 µM	–
CC1CCCCN1C(=N)NC(=N)Nc1ccc(CCN)cc1 (centres unmarked) [Example 48]	–	> 100 µM	–
COc1ccc2[nH]c(NC(=N)N3CCCC3)nc2c1 [Example 95, N-(5-methoxy-1H-benzo[d]imidazol-2-yl)pyrrolidine-1-carboximidamide]	–	> 100 µM	–
CN1CCN(C(=N)NC(=N)Nc2ccc(Cl)c(OC(F)(F)F)c2)CC1 [Example 39, N1-4-methyl piperazine-N5-(4-chloro-3-trifluoromethoxy)phenyl biguanide]	–	7.5 µM	–
CN1CCN(C(=N)NC(=N)Nc2ccc(OC(F)(F)F)c(Cl)c2)CC1 [Example 36, N1-4-methyl piperazine-N5-(3-chloro-4-trifluoromethoxy)phenyl biguanide]	–	7.1 µM	–
CN(C(=N)NC(=N)N1CCCC1)c1c(F)cccc1F [Example 4, N1-pyrrolidine-N5-(2,6-difluoro-N5-methyl)phenyl biguanide]	–	> 100 µM	–
N=C(N)NC(=N)Nc1ccc(F)c(Cl)c1 [Example 58, N5-(3-chloro-4-fluoro)phenyl biguanide]	–	> 100 µM	–
CC1CCCN(C(=N)NC(=N)Nc2ccc(CNC(=O)c3ccccc3-c3c4ccc(=O)cc-4oc4cc(O)ccc34)cc2)C1 (centres unmarked) [Example 86, 2-(6-hydroxy-3-oxo-3H-xanthene-9-yl)-N-(4-(3-(imino(3-methylpiperidine-1-yl)methyl)guanidino)benzyl)benzamide]	–	53.2 µM	–
CN(C)C(=N)NC(=N)Nc1ccc(SCC(=O)N2CCCCC2)cc1 [Example 61, N1,N1-dimethyl-N5-4-(2-oxo-2-(piperidin-1-yl)ethylthio)phenyl biguanide]	–	> 100 µM	–
N=C(NC(=N)N1CCCC1)Nc1cccc(-c2ccccc2)c1 [Example 8, N1-pyrrolidine-N5-(N-biphenyl-3-yl) biguanide]	–	6.97 µM	–
CN1CCN(C(=N)NC(=N)Nc2ccc(Cl)c(C(F)(F)F)c2)CC1 [Example 38, N1-4-methyl piperazine-N5-(4-chloro-3-trifluoromethyl)phenyl biguanide]	–	11.7 µM	–
CC1CCCCN1C(=N)NC(=N)Nc1ccc(CCNC(=O)CCCCC2CC3NC(=O)NC3S2)cc1 (centres unmarked) [Example 78, N-(4-(3-(imino(2-methylpiperidin-1-yl)methyl)guanidino)phenethyl)-5-(2-oxohexahydro-1H-thieno[2,3-d]imidazol-5-yl)pentanamide]	–	> 100 µM	–
N=C(NCCc1ccc(F)cc1)NC(=N)N1CCCC1 [Example 12, N1-pyrrolidine-N5-(4-fluoro)phenethyl biguanide]	–	81.9 µM	–
N=C(NC(=N)N1CCc2ccccc2C1)Nc1ccc(OC(F)(F)F)cc1 [Example 87, N—(N-(4-(trifluoromethoxy)phenyl)carbamimidoyl)-3,4-dihydroisoquinolin-2(1H)-carboximidamide]	–	2.57 µM	–
N=C(NCc1ccc(C(F)(F)F)cc1)NC(=N)Nc1cccnc1 [Example 64, N1-3-pyridine-N5-(4-trifluoromethyl)benzyl biguanide]	–	29.2 µM	–
N=C(NC(=N)NC1CCCC1)Nc1ccc(OC(F)(F)F)cc1 [Example 68, N1-cyclopentyl-N5-(4-trifluoromethoxy)phenyl biguanide]	–	53.1 µM	–
N=C(NC(=N)N1CCCC1)Nc1ccc(CCN)cc1 [Example 47]	–	> 100 µM	–
N=C(N)NC(=N)Nc1ccc(F)cc1 [Example 55, N5-4-fluorophenyl biguanide]	–	> 100 µM	–
C[C@@H]1CCC[C@H](C)N1C(=N)NC(=N)Nc1ccc(CCNC(=O)CCCCC2CC3NC(=O)NC3S2)cc1 (stereo partly drawn) [Example 81, N-(4-(3-(((2R,6S)-2,6-dimethylpiperidin-1-yl)(imino)methyl)guanidino)phenethyl)-5-(2-oxohexahydro-1H-thieno[2,3-d]imidazol-5-yl)pentanamide]	–	> 100 µM	–
C[C@@H]1CCC[C@H](C)N1C(=N)NC(=N)Nc1ccc(CCN)cc1 [Example 46]	–	> 100 µM	–
